Measured values from the supplement of paper PMC10331698.
± gives the standard deviation of the averaged measurements.

How the values were obtained:
Assay in all cases: level (log10 ratio to DMSO vehicle control); higher = higher biomarker level / cell amount than vehicle control
Nonafluoropentanamide = compound: NC(=O)C(F)(F)C(F)(F)C(F)(F)C(F)(F)F [Nonafluoropentanamide]; settings: in DMSO
Method: (§1)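 BioMAP Diversity Plus panel of 12 human primary cell co-culture systems (3C, 4H, LPS, SAg, BT, BF4T, BE3C, CASM3C, HDF3CGF, KF3CT, MyoF, Mphg). Compounds were added 1 h before stimulation and left for 24 h (MyoF 48 h; BT 72 h for soluble read-outs or 6 d for IgG). Biomarkers were read by ELISA, cytotoxicity by SRB, PBMC viability and proliferation by Alamar Blue. Each well value was divided by the mean of 8 DMSO control wells on the same plate and log10 transformed; duplicate blinded samples were tested at 4 concentrations.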

[1] = compound: NS(=O)(=O)C(F)(F)C(F)(F)C(F)(F)C(F)(F)C(F)(F)C(F)(F)F [Perfluorohexanesulfonamide]; settings: in DMSO
Method: as §1

[2] = compound: O=S(=O)(F)C(F)(F)C(F)(F)C(F)(F)C(F)(F)C(F)(F)C(F)(F)C(F)(F)C(F)(F)F [Perfluorooctanesulfonyl fluoride]; settings: in DMSO
Method: as §1

[3] = compound: O=C(O)C=CC(F)(C(F)(F)F)C(F)(F)F [3-(Perfluoroisopropyl)-2-propenoic acid]; settings: in DMSO
Method: as §1

[4] = compound: NC(=O)C(F)(F)C(F)(F)C(F)(F)C(F)F; settings: in DMSO
Method: as §1

[5] = compound: O=S(=O)(O)C(F)(F)C(F)(F)C(F)(F)C(F)(F)C(F)(F)C(F)(F)C(F)(F)C(F)(F)C(F)(F)C(F)(F)F [Sodium perfluorodecanesulfonate]; settings: in DMSO
Method: as §1

Hexafluoroamylene glycol = compound: OCC(F)(F)C(F)(F)C(F)(F)CO [Hexafluoroamylene glycol]; settings: in DMSO
Method: as §1

[6] = compound: FC(F)(F)C(F)(F)C(F)(F)C(F)(F)C(F)(F)C(F)(F)C(F)(F)I [1-Iodopentadecafluoroheptane]; settings: in DMSO
Method: as §1

[7] = compound: O=C(O)C(F)(F)C(F)(F)C(F)(F)C(F)(F)C(F)(F)C(F)(F)C(F)(F)C(F)(F)C(F)(F)C(F)F [11-H-Perfluoroundecanoic acid]; settings: in DMSO
Method: as §1

[8] = compound: FC(F)(F)C(F)(F)C(F)(F)CC1CO1 [1H,1H-Heptafluorobutyl epoxide]; settings: in DMSO
Method: as §1

[9] = compound: COC(=O)C(F)(F)C(F)(F)OC(F)(C(F)(F)F)C(F)(F)OC(F)=C(F)F [Methyl perfluoro(3-(1-ethenyloxypropan-2-yloxy)propanoate)]; settings: in DMSO
Method: as §1

[10] = compound: O=S(=O)(O)CCC(F)(F)C(F)(F)C(F)(F)C(F)(F)C(F)(F)C(F)(F)F [6:2 Fluorotelomer sulfonic acid]; settings: in DMSO
Method: as §1

[11] = compound: FC(F)(F)C(F)(F)C(F)(F)C(F)(F)C(F)(F)C(F)(F)CC1CO1 [3-(Perfluorohexyl)-1,2-epoxypropane]; settings: in DMSO
Method: as §1

[12] = compound: O=S(=O)(Cl)C(F)(F)C(F)(F)C(F)(F)C(F)(F)C(F)(F)C(F)(F)C(F)(F)C(F)(F)F [Perfluoro-1-octanesulfonyl chloride]; settings: in DMSO
Method: as §1

[13] = compound: C=C(C)C(=O)OCCC(F)(F)C(F)(F)C(F)(F)C(F)(F)C(F)(F)C(F)(F)F [6:2 Fluorotelomer methacrylate]; settings: in DMSO
Method: as §1

Heptafluorobutyl iodide = compound: FC(F)(F)C(F)(F)C(F)(F)CI [Heptafluorobutyl iodide]; settings: in DMSO
Method: as §1

[14] = compound: C=CC(=O)OCC(F)(F)C(F)(F)C(F)(F)COC(=O)C=C [1H,1H,5H,5H-Perfluoro-1,5-pentanediol diacrylate]; settings: 6700 nM; in DMSO
Method: as §1

Octafluoroadipamide = compound: NC(=O)C(F)(F)C(F)(F)C(F)(F)C(F)(F)C(N)=O [Octafluoroadipamide]; settings: in DMSO
Method: as §1

[15] = compound: FC(F)(F)C(F)(F)CNCC(F)(F)C(F)(F)F [Bis(1H,1H-perfluoropropyl)amine]; settings: in DMSO
Method: as §1

## KF3CT:uPA
Nonafluoropentanamide; 6700 nM
  level (log10): 0.0205 ± 0.011
Nonafluoropentanamide; 20000 nM
  level (log10): 0.019 ± 0.0042
Nonafluoropentanamide; 60000 nM
  level (log10): 0.011 ± 0.013
[1]; 6700 nM
  level (log10): -0.006 ± 0.023
[1]; 20000 nM
  level (log10): -0.0215 ± 0.019
[1]; 60000 nM
  level (log10): 0.0025 ± 0.022
[2]; 6700 nM
  level (log10): 0.006 ± 0.011
[2]; 20000 nM
  level (log10): 0.008 ± 0.016
[2]; 60000 nM
  level (log10): 0.011 ± 0.028
[3]; 6700 nM
  level (log10): 0.0095 ± 0.0064
[3]; 20000 nM
  level (log10): 0.0045 ± 0.0078
[3]; 60000 nM
  level (log10): 0.004 ± 0.02
[4]; 6700 nM
  level (log10): 0.008 ± 0.025
[4]; 20000 nM
  level (log10): -0.0125 ± 0.028
[4]; 60000 nM
  level (log10): -0.008 ± 0.021
[5]; 1500 nM
  level (log10): -0.0325 ± 0.016
[5]; 4400 nM
  level (log10): 0.0025 ± 0.018
[5]; 13000 nM
  level (log10): -0.001 ± 0.037
[5]; 40000 nM
  level (log10): 0.0035 ± 0.0021
Hexafluoroamylene glycol; 6700 nM
  level (log10): 0.004 ± 0.0057
Hexafluoroamylene glycol; 20000 nM
  level (log10): 0.006 ± 0.011
Hexafluoroamylene glycol; 60000 nM
  level (log10): -0.0065 ± 0.025
[6]; 6700 nM
  level (log10): -0.014 ± 0.013
[6]; 20000 nM
  level (log10): 0.0105 ± 0.044
[7]; 6700 nM
  level (log10): -0.003
[7]; 20000 nM
  level (log10): 0.0055 ± 0.0092
[8]; 6700 nM
  level (log10): -0.0085 ± 0.047
[8]; 20000 nM
  level (log10): 0.017 ± 0.067
[8]; 60000 nM
  level (log10): -0.019 ± 0.033
[9]; 6700 nM
  level (log10): 0.014 ± 0.021
[9]; 20000 nM
  level (log10): 0.0325 ± 0.019
[10]; 6700 nM
  level (log10): 0.0015 ± 0.005
[10]; 20000 nM
  level (log10): -0.0115 ± 0.019
[10]; 60000 nM
  level (log10): 0.008 ± 0.03
[11]; 6700 nM
  level (log10): 0.006 ± 0.011
[11]; 20000 nM
  level (log10): 0.001 ± 0.011
[11]; 60000 nM
  level (log10): -0.0015 ± 0.005
[12]; 6700 nM
  level (log10): 0.016 ± 0.017
[12]; 20000 nM
  level (log10): 0.0145 ± 0.025
[12]; 60000 nM
  level (log10): 0.0055 ± 0.00071
[13]; 6700 nM
  level (log10): -0.016 ± 0.013
[13]; 20000 nM
  level (log10): -0.011 ± 0.023
[13]; 60000 nM
  level (log10): -0.0015 ± 0.0078
Heptafluorobutyl iodide; 6700 nM
  level (log10): 0.003 ± 0.0014
Heptafluorobutyl iodide; 20000 nM
  level (log10): -0.0155 ± 0.011
Heptafluorobutyl iodide; 60000 nM
  level (log10): -0.014 ± 0.0028
[14]
  level (log10): -0.0035 ± 0.013
Octafluoroadipamide; 6700 nM
  level (log10): -0.0015 ± 0.018
Octafluoroadipamide; 20000 nM
  level (log10): 0.0005 ± 0.0035
Octafluoroadipamide; 60000 nM
  level (log10): 0.0145 ± 0.018
[15]; 6700 nM
  level (log10): 0.001 ± 0.013
[15]; 20000 nM
  level (log10): 0.0085 ± 0.0092
[15]; 60000 nM
  level (log10): 0.012 ± 0.013

## LPS:CD40
Nonafluoropentanamide; 6700 nM
  level (log10): 0.002 ± 0.038
Nonafluoropentanamide; 20000 nM
  level (log10): -0.008 ± 0.068
Nonafluoropentanamide; 60000 nM
  level (log10): 0.0015 ± 0.035
[1]; 6700 nM
  level (log10): 0.005 ± 0.068
[1]; 20000 nM
  level (log10): -0.045 ± 0.09
[1]; 60000 nM
  level (log10): -0.191 ± 0.04
[2]; 6700 nM
  level (log10): 0.031 ± 0.12
[2]; 20000 nM
  level (log10): 0.0455 ± 0.094
[2]; 60000 nM
  level (log10): 0.033 ± 0.1
[3]; 6700 nM
  level (log10): -0.008 ± 0.0085
[3]; 20000 nM
  level (log10): 0.008 ± 0.048
[3]; 60000 nM
  level (log10): -0.017 ± 0.079
[4]; 6700 nM
  level (log10): -0.0125 ± 0.029
[4]; 20000 nM
  level (log10): -0.0045 ± 0.018
[4]; 60000 nM
  level (log10): -0.03 ± 0.017
[5]; 1500 nM
  level (log10): -0.017 ± 0.024
[5]; 4400 nM
  level (log10): -0.028 ± 0.0099
[5]; 13000 nM
  level (log10): -0.0525 ± 0.0078
[5]; 40000 nM
  level (log10): -0.242 ± 0.026
Hexafluoroamylene glycol; 6700 nM
  level (log10): 0.035 ± 0.024
Hexafluoroamylene glycol; 20000 nM
  level (log10): 0.0385 ± 0.04
Hexafluoroamylene glycol; 60000 nM
  level (log10): 0.028 ± 0.04
[6]; 6700 nM
  level (log10): 0.0645 ± 0.11
[6]; 20000 nM
  level (log10): -0.006 ± 0.15
[7]; 6700 nM
  level (log10): -0.0115 ± 0.015
[7]; 20000 nM
  level (log10): -0.0505 ± 0.03
[8]; 6700 nM
  level (log10): 0.0165 ± 0.054
[8]; 20000 nM
  level (log10): 0.0105 ± 0.053
[8]; 60000 nM
  level (log10): 0.026 ± 0.024
[9]; 6700 nM
  level (log10): 0.0235 ± 0.035
[9]; 20000 nM
  level (log10): -0.0365 ± 0.022
[10]; 6700 nM
  level (log10): 0.025 ± 0.048
[10]; 20000 nM
  level (log10): 0.0165 ± 0.037
[10]; 60000 nM
  level (log10): -0.015 ± 0.024
[11]; 6700 nM
  level (log10): -0.0115 ± 0.012
[11]; 20000 nM
  level (log10): 0.01 ± 0.014
[11]; 60000 nM
  level (log10): -0.0045 ± 0.015
[12]; 6700 nM
  level (log10): -0.0175 ± 0.081
[12]; 20000 nM
  level (log10): -0.0145 ± 0.042
[12]; 60000 nM
  level (log10): -0.027 ± 0.0042
[13]; 6700 nM
  level (log10): -0.022 ± 0.045
[13]; 20000 nM
  level (log10): -0.04 ± 0.024
[13]; 60000 nM
  level (log10): -0.0335 ± 0.11
Heptafluorobutyl iodide; 6700 nM
  level (log10): -0.045 ± 0.018
Heptafluorobutyl iodide; 20000 nM
  level (log10): -0.0035 ± 0.013
Heptafluorobutyl iodide; 60000 nM
  level (log10): 0.001 ± 0.0057
[14]
  level (log10): -0.209 ± 0.024
Octafluoroadipamide; 6700 nM
  level (log10): -0.044 ± 0.016
Octafluoroadipamide; 20000 nM
  level (log10): -0.022 ± 0.035
Octafluoroadipamide; 60000 nM
  level (log10): 0 ± 0.0028
[15]; 6700 nM
  level (log10): 0.041 ± 0.041
[15]; 20000 nM
  level (log10): -0.0115 ± 0.047
[15]; 60000 nM
  level (log10): -0.0155 ± 0.025
